Experimental data from PubChem BioAssay AID248 (DTP/NCI, 2004).
Several values for one entry are separate records, joined by “and”; a condition that tells them apart may be missing. Identical values can stand only once. Toxic doses and inconclusive results are not listed.

System: L1210 leukemia ip in BDF1 mice, survival T/C
Assay: NCI In Vivo Anticancer Drug Screen. Data for tumor model L1210 Leukemia (intraperitoneal) in B6D2F1 (BDF1) mice
Settings: higher = longer survival
In short: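 Antitumor effect is assessed in tumor-bearing animals. Survival in the compound arm is compared with a vehicle-dosed control arm and expressed as their quotient.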

## Nc1nc2n[nH]nc2c(=O)[nH]1
endpoint: mean survival time, dose: 87.0 mg/kg/injection, schedule: Q07DX Z (ip), vehicle: water
  T/C: 121 % of control
endpoint: mean survival time, dose: 89.4 mg/kg/injection, schedule: Q01DX Z (ip), vehicle: carboxymethylcellulose (CMC)
  T/C: 154 % of control
endpoint: mean survival time, dose: 90.0 mg/kg/injection, schedule: Q01DX009 (ip), vehicle: other
  T/C: 150 % of control
endpoint: mean survival time, dose: 90.0 mg/kg/injection, schedule: Q01DX015 (ip), vehicle: carboxymethylcellulose (CMC)
  T/C: 155 % of control
endpoint: mean survival time, dose: 90.0 mg/kg/injection, schedule: Q## X015 (ip), vehicle: carboxymethylcellulose (CMC)
  T/C: 155 % of control
endpoint: mean survival time, dose: 100.0 mg/kg/injection, schedule: Q01DX001 (ip), vehicle: steriod suspending solution
  T/C: 118 % of control
endpoint: mean survival time, dose: 100.0 mg/kg/injection, schedule: Q01DX009 (ip), vehicle: other
  T/C: 152 % of control
endpoint: mean survival time, dose: 100.0 mg/kg/injection, schedule: Q01DX009 (ip), vehicle: water
  T/C: 154 % of control
endpoint: mean survival time, dose: 100.0 mg/kg/injection, schedule: Q01DX Z (im), vehicle: water
  T/C: 160 % of control
endpoint: mean survival time, dose: 100.0 mg/kg/injection, schedule: Q#A X Z (ip), vehicle: carboxymethylcellulose (CMC)
  T/C: 115 % of control
endpoint: mean survival time, dose: 111.75 mg/kg/injection, schedule: Q01DX Z (ip), vehicle: carboxymethylcellulose (CMC)
  T/C: 160 % of control
endpoint: mean survival time, dose: 125.0 mg/kg/injection, schedule: Q01DX001 (sc), vehicle: carboxymethylcellulose (CMC)
  T/C: 109 % of control
endpoint: mean survival time, dose: 125.0 mg/kg/injection, schedule: Q## X003 (ip), vehicle: carboxymethylcellulose (CMC)
  T/C: 152 % of control and 155 % of control
endpoint: mean survival time, dose: 135.0 mg/kg/injection, schedule: Q01DX015 (ip), vehicle: carboxymethylcellulose (CMC)
  T/C: 152 % of control
endpoint: mean survival time, dose: 135.0 mg/kg/injection, schedule: Q## X015 (ip), vehicle: carboxymethylcellulose (CMC)
  T/C: 152 % of control
endpoint: mean survival time, dose: 150.0 mg/kg/injection, schedule: Q01DX009 (sc), vehicle: carboxymethylcellulose (CMC)
  T/C: 150 % of control
endpoint: mean survival time, dose: 150.0 mg/kg/injection, schedule: Q01DX Z (ip), vehicle: carboxymethylcellulose (CMC)
  T/C: 156 % of control
endpoint: mean survival time, dose: 175.0 mg/kg/injection, schedule: Q01DX001 (ip), vehicle: water
  T/C: 119 % of control and 121 % of control
endpoint: mean survival time, dose: 175.0 mg/kg/injection, schedule: Q07DX Z (ip), vehicle: water
  T/C: 116 % of control
endpoint: mean survival time, dose: 200.0 mg/kg/injection, schedule: Q01DX001 (ip), vehicle: steriod suspending solution
  T/C: 120 % of control
endpoint: mean survival time, dose: 200.0 mg/kg/injection, schedule: Q01DX009 (ip), vehicle: saline
  T/C: 102 % of control
endpoint: mean survival time, dose: 200.0 mg/kg/injection, schedule: Q01DX009 (ip), vehicle: water
  T/C: 152 % of control and 160 % of control
endpoint: mean survival time, dose: 200.0 mg/kg/injection, schedule: Q01DX Z (im), vehicle: carboxymethylcellulose (CMC)
  T/C: 103 % of control
endpoint: mean survival time, dose: 200.0 mg/kg/injection, schedule: Q01DX Z (sc), vehicle: carboxymethylcellulose (CMC)
  T/C: 124 % of control
endpoint: mean survival time, dose: 202.0 mg/kg/injection, schedule: Q01DX009 (ip), vehicle: other
  T/C: 98 % of control
endpoint: mean survival time, dose: 202.5 mg/kg/injection, schedule: Q01DX015 (ip), vehicle: carboxymethylcellulose (CMC)
  T/C: 97 % of control
endpoint: mean survival time, dose: 202.5 mg/kg/injection, schedule: Q## X015 (ip), vehicle: carboxymethylcellulose (CMC)
  T/C: 97 % of control
endpoint: mean survival time, dose: 223.5 mg/kg/injection, schedule: Q01DX Z (ip), vehicle: carboxymethylcellulose (CMC)
  T/C: 107 % of control
endpoint: mean survival time, dose: 225.0 mg/kg/injection, schedule: Q01DX015 (ip), vehicle: clinical formulation
  T/C: 156 % of control
endpoint: mean survival time, dose: 250.0 mg/kg/injection, schedule: Q01DX001 (sc), vehicle: carboxymethylcellulose (CMC)
  T/C: 113 % of control
endpoint: mean survival time, dose: 250.0 mg/kg/injection, schedule: Q06DX003 (ip), vehicle: carboxymethylcellulose (CMC)
  T/C: 151 % of control
endpoint: mean survival time, dose: 250.0 mg/kg/injection, schedule: Q## X003 (ip), vehicle: carboxymethylcellulose (CMC)
  T/C: 155 % of control
endpoint: mean survival time, dose: 300.0 mg/kg/injection, schedule: Q01DX009 (ip), vehicle: other
  T/C: 119 % of control
endpoint: mean survival time, dose: 300.0 mg/kg/injection, schedule: Q01DX009 (sc), vehicle: carboxymethylcellulose (CMC)
  T/C: 151 % of control
endpoint: mean survival time, dose: 300.0 mg/kg/injection, schedule: Q03DX Z (ip), vehicle: water
  T/C: 121 % of control
endpoint: mean survival time, dose: 350.0 mg/kg/injection, schedule: Q01DX001 (ip), vehicle: water
  T/C: 116 % of control and 121 % of control
endpoint: mean survival time, dose: 350.0 mg/kg/injection, schedule: Q07DX Z (ip), vehicle: water
  T/C: 109 % of control
endpoint: mean survival time, dose: 400.0 mg/kg/injection, schedule: Q01DX Z (sc), vehicle: carboxymethylcellulose (CMC)
  T/C: 100 % of control
endpoint: mean survival time, dose: 500.0 mg/kg/injection, schedule: Q01DX001 (ip), vehicle: carboxymethylcellulose (CMC)
  T/C: 150 % of control
endpoint: mean survival time, dose: 500.0 mg/kg/injection, schedule: Q## X003 (ip), vehicle: carboxymethylcellulose (CMC)
  T/C: 95 % of control
endpoint: mean survival time, dose: 700.0 mg/kg/injection, schedule: Q01DX001 (ip), vehicle: water
  T/C: 97 % of control
endpoint: mean survival time, dose: 750.0 mg/kg/injection, schedule: Q10DX003 (ip), vehicle: carboxymethylcellulose (CMC)
  T/C: 157 % of control
endpoint: median survival time, dose: 12.5 mg/kg/injection, schedule: Q01DX009 (ip), vehicle: other
  T/C: 122 % of control
endpoint: median survival time, dose: 25.0 mg/kg/injection, schedule: Q01DX009 (ip), vehicle: other
  T/C: 122 % of control
endpoint: median survival time, dose: 200.0 mg/kg/injection, schedule: Q01DX009 (ip), vehicle: other
  T/C: 150 % of control
